# Test results reported in patent publication US20030133923A1, “Composition for preventing the formation and enhancing the breakdown of bezoars in animals and humans” (priority 2001, published 2003).
# Experiment: In vitro breakdown of a feline hairball under simulated stomach conditions (pH 3.0, 100° F., 24 hours)
# Settings: for % enhanced break down: versus 0% Tween-80; for Hair clump wt: hairball 1.0-1.1 g
# Experimental: Tween 80 (lot#1373A, Uniqema, Wilmington, Del.) was dissolved in 150 ml acidified water (pH 3.0) at a concentration of 0%, 5%, 10%, 15%, and 20%. A feline hairball (1.0-1.1 g) was then added to each of the five solutions. The mixtures were incubated at 100° F. for 24 hours. After incubation, hair lumps (defined as hair not floating free in the liquid) was removed and the liquid was strained through cheesecloth. Free hair and hair lumps were then dried and weighed.
smiles,measurement,setting,value
CCCCCCCC/C=C\CCCCCCCC(=O)OCCOCC(OCCO)C1OCC(OCCO)C1OCCO (centres unmarked) [Tween-80],Free hair wt,"5% Tween-80, pH 3.0, 100° F.",0.1606 g
same,Free hair wt (% total wt),"5% Tween-80, pH 3.0, 100° F.",20.38%
same,Hair clump wt (% total wt),"5% Tween-80, pH 3.0, 100° F.",79.62%
same,% enhanced break down,"5% Tween-80, pH 3.0, 100° F.",5%
same,Hair clump wt,"5% Tween-80 in 150 ml acidified water pH 3.0, 100° F.",0.6273 g
same,Free hair wt,"10% Tween-80, pH 3.0, 100° F.",0.2576 g
same,Free hair wt (% total wt),"10% Tween-80, pH 3.0, 100° F.",53.78%
same,Hair clump wt (% total wt),"10% Tween-80, pH 3.0, 100° F.",46.22%
same,% enhanced break down,"10% Tween-80, pH 3.0, 100° F.",35%
same,Hair clump wt,"10% Tween-80 in 150 ml acidified water pH 3.0, 100° F.",0.2214 g
same,Free hair wt,"15% Tween-80, pH 3.0, 100° F.",0.1980 g
same,Free hair wt (% total wt),"15% Tween-80, pH 3.0, 100° F.",47.86%
same,Hair clump wt (% total wt),"15% Tween-80, pH 3.0, 100° F.",52.14%
same,% enhanced break down,"15% Tween-80, pH 3.0, 100° F.",35%
same,Hair clump wt,"15% Tween-80 in 150 ml acidified water pH 3.0, 100° F.",0.2157 g
same,Free hair wt,"20% Tween-80, pH 3.0, 100° F.",0.2480 g
same,Free hair wt (% total wt),"20% Tween-80, pH 3.0, 100° F.",51.99%
same,Hair clump wt (% total wt),"20% Tween-80, pH 3.0, 100° F.",48.00%
same,% enhanced break down,"20% Tween-80, pH 3.0, 100° F.",35%
same,Hair clump wt,"20% Tween-80 in 150 ml acidified water pH 3.0, 100° F.",0.2290 g
